# Source: the RepoRT retention time repository
# Test: RP, Thermo Scientific Hypersil GOLD, 1.9 µm, 40 °C, 0.4 mL/min; A: water + 0.1% formic acid, pH 3; B: acetonitrile + 0.1% formic acid, pH 3; gradient (min/%B) 0/0 1/0 11/100 13/100 14/0 16/0
# Conditions: stereoisomer not certain
row,Compound,LC retention time [min]
1,Nc1nc2c(c(=O)[nH]1)N=C(CNc1ccc(C(=O)NC(CCC(=O)O)C(=O)O)cc1)CN2 (stereo not drawn) [DIHYDROFOLATE],4.54
2,NCC(O)c1ccc(O)c(O)c1 (stereo not drawn) [NORADRENALINE],0.65
3,C=C(CC(=O)O)C(=O)O [ITACONATE],3.2
4,O=c1ccn(C2OC(CO)C(O)C2O)c(=O)[nH]1 (stereo not drawn) [URIDINE],0.82
5,CNCCc1c[nH]c2ccccc12 [N-METHYLTRYPTAMINE],4.93
6,CC(C)C(O)C(=O)O (stereo not drawn),4.13
7,CC(=O)OCC(N)C(=O)O (stereo not drawn) [O-ACETYLSERINE],0.69
8,O=C(O)C=Cc1ccc(O)cc1 [4-COUMARATE],5.43
9,CC(C)(CCC(=O)O)C(=O)O [2-2-Dimethylglutaric acid],5.21
10,NCCP(=O)(O)O [(2-AMINOETHYL)PHOSPHONATE],0.63
11,COc1cc(CC(=O)O)ccc1O [HOMOVANILLATE],5.13
12,Nc1ncnc2nc[nH]c12 [ADENINE],0.74
13,O=C(O)c1ccccc1O [SALICYLATE],6.26
14,OCC1OC(OC2(CO)OC(CO)C(O)C2O)C(O)C(O)C1O (stereo not drawn) [SUCROSE],0.69
15,CC12CCC3c4ccc(O)cc4CCC3C1CCC2O (stereo not drawn) [ESTRADIOL-17ALPHA],8.07
16,Nc1c(O)cccc1C(=O)CC(N)C(=O)O (stereo not drawn) [HYDROXYKYNURENINE],0.88
17,O=C(O)c1cccnc1C(=O)O [QUINOLINATE],1.22
18,O=P(O)(O)O [Phosphoric acid_+H+],0.64
19,NCCCCC(=O)O [5-AMINOPENTANOATE],0.71
20,Cn1cncc1CC(NC(=O)CCN)C(=O)O (stereo not drawn) [ANSERINE],0.57
21,NC1CCSC1=O (stereo not drawn) [HOMOCYSTEINE THIOLACTONE],0.72
22,Nc1ccccc1S(=O)(=O)O [ANILINE-2-SULFONATE],1.42
23,CCOC(N)=O [Urethane],2.11
24,CC(C)(CC(=O)O)CC(=O)O [3-3-Dimethylglutaric acid],5.04
25,Cn1c(=O)[nH]c2[nH]c(=O)n(C)c2c1=O [1-7-Dimethyluric acid],4.27
26,NC1C(O)OC(COP(=O)(O)O)C(O)C1O (stereo not drawn) [GLUCOSAMINE 6-PHOSPHATE],0.6

row,Compound,LC retention time [min]
1,O=C1CCCCO1 [5-VALEROLACTONE],6.54
2,CCCCC(O)C(=O)O (stereo not drawn) [2-hydroxycaproic acid],5.43
3,CN1CC(=O)NC1=N [CREATININE],0.62
4,CCCCCCCCCCCCCCCCCCC(=O)O [nonadecanoic acid],0.68
5,O=C(O)c1ccc[n+]([O-])c1 [Nicotinic acid N-oxide],0.83
6,O=C(O)CC(=O)O [MALONATE],0.83
7,CCCCCCCCCC(=O)OC(CC(=O)[O-])C[N+](C)(C)C [Decanoyl-L-carnitine],7.63
8,NCC(=O)NCC(=O)O [Gly-Gly],0.62
9,CC(C)=CCNc1ncnc2nc[nH]c12 [N6-(DELTA2-ISOPENTENYL)-ADENINE],5.26
10,O=C(O)CC(C(=O)O)C(O)C(=O)O (stereo not drawn) [ISOCITRATE],2.37
11,CC(O)(CCO)CC(=O)[O-] (stereo not drawn) [MEVALONATE],0.55
12,NC(=O)c1ccc[n+](C2OC(COP(=O)(O)OP(=O)(O)OCC3OC(n4cnc5c(N)ncnc54)C(O)C3O)C(O)C2O)c1 (stereo not drawn) [BETA-NICOTINAMIDE ADENINE DINUCLEOTIDE],0.78
13,OCC(O)C(O)C(O)CO (stereo not drawn) [RIBITOL],0.64
14,O=C(O)CCCCCCCC(=O)O [AZELATE],6.12
15,Nc1nc2nc[nH]c2c(=O)[nH]1 [GUANINE],0.78
16,Cn1cncc1CCN [3-METHYLHISTAMINE],0.57
17,Cc1ncc(C[n+]2csc(CCO)c2C)c(N)n1 [THIAMINE],0.61
18,O=C(O)c1cccnc1 [Nicotinic acid],0.81
19,Cc1cn(C2CC(O)C(CO)O2)c(=O)[nH]c1=O (stereo not drawn) [THYMIDINE],3.68
20,CCCCCCCCCC(=O)OCC(COP(=O)([O-])OCC[N+](C)(C)C)OC(=O)CCCCCCCCC (stereo not drawn) [DIDECANOYL-GLYCEROPHOSPHOCHOLINE],11.1
21,CSCCC(O)C(=O)O (stereo not drawn) [2-HYDROXY-4-(METHYLTHIO)BUTANOATE],4.21
22,Cc1ncc(CO)c(CN)c1O [PYRIDOXAMINE],0.59
23,CC=CC=CC(=O)O [SORBATE],6.15
24,O=C1CC(C(=O)O)NC(=O)N1 (stereo not drawn) [DIHYDROOROTATE],0.77
25,O=C([O-])c1cc(=O)[nH]c(=O)[nH]1 [OROTATE],0.77
26,Oc1ccccc1 [PHENOL],6.21

row,Compound,LC retention time [min]
1,O=C(O)C(=O)Cc1ccccc1 [PHENYLPYRUVATE],5.26
2,NCCC(=O)O [BETA-ALANINE],0.62
3,CC(=O)NC(CS)C(=O)O (stereo not drawn) [N-ACETYLCYSTEINE],1.9
4,O=CNCC(=O)O [N-FORMYLGLYCINE],0.74
5,O=C(O)CC(Cc1ccccc1)C(=O)O (racemic) [dl-benzylsuccinic acid],6.38
6,N[C@@H](CCC(=O)O)C(=O)O [L-Glutamic acid],0.65
7,O=C(O)c1ccc2ccccc2c1[O-] [1-HYDROXY-2-NAPHTHOATE],8.24
8,c1ncc2[nH]cnc2n1 [PURINE],0.81
9,[NH3+]CC(=O)N1CCCC1C(=O)[O-] (stereo not drawn) [Gly-Pro],0.82
10,C[n+]1cccc(C(N)=O)c1 [1-METHYLNICOTINAMIDE],0.63
11,C[N+](C)(C)CCOP(=O)(O)O [PHOSPHORYLCHOLINE],0.64
12,COc1ccc2[nH]cc(CCNC(C)=O)c2c1 [MELATONIN],6.09
13,O=CCC(O)C(O)CO (stereo not drawn),0.82
14,CC(CCC(=O)O)CC(=O)O (stereo not drawn) [3-Methyladipic acid],5.01
15,Cn1cnc(=N)c2[nH]cnc21 [3-METHYLADENINE],0.8
16,CC(=O)C1C(=O)C=C(C)OC1=O (stereo not drawn) [Dehydroacetic acid],6.42
17,NCCc1ccccc1 [PHENETHYLAMINE],4.03
18,CC(=O)NCCc1c[nH]c2ccc(O)cc12 [N-ACETYLSEROTONIN],4.86
19,NC(=O)c1cccnc1 [NICOTINAMIDE],0.83
20,Cn1c(=O)c2[nH]cnc2n(C)c1=O [THEOPHYLLINE],4.42
21,Cc1ncc(C[n+]2csc(CCOP(=O)([O-])OP(=O)(O)O)c2C)c(N)n1 [THIAMINE PYROPHOSPHATE],0.65
22,O=C(O)C(O)c1cccc(O)c1 (stereo not drawn) [3-Hydroxymandelic acid],2.66
23,CC(=O)Oc1cccc(O)c1 [RESORCINOL MONOACETATE],6.1
24,CS(=N)(=O)CCC(N)C(=O)O (stereo not drawn) [METHIONINE SULFOXIMINE],0.62
25,COC(=O)c1ccc(O)c(OC)c1 [METHYL VANILLATE],6.4
26,NC(Cc1c[nH]c2ccc(O)cc12)C(=O)O (stereo not drawn) [5-HYDROXYTRYPTOPHAN],1.99
